Key:
Abutilon theophrasti [1] = test: Herbicidal activity against Abutilon theophrasti (velvetleaf) in plastic pot assessed as killing at 500 g/ha under greenhouse for 20 days by preemergence herbicidal activity tests; assay type: functional
Echinochloa frumentacea = test: Herbicidal activity against Echinochloa frumentacea (Japanese millet) in plastic pot assessed as killing at 500 g/ha under greenhouse for 20 days by preemergence herbicidal activity tests; assay type: functional
Ipomoea nil [2] = test: Herbicidal activity against Ipomoea nil (Japanese morning glory) in plastic pot assessed as killing at 500 g/ha under greenhouse for 20 days by pre-emergence herbicidal activity tests; assay type: functional
Abutilon theophrasti [3] = test: Herbicidal activity against Abutilon theophrasti (velvetleaf) in field soil at 125 g/ha measured after 3 days by preemergence herbicidal activity tests; assay type: functional
Echinochloa crus-galli [4] = test: Herbicidal activity against Echinochloa crus-galli (barnyard grass) in field soil at 125 g/ha measured after 3 days by preemergence herbicidal activity tests; assay type: functional
Sida spinosa [5] = test: Herbicidal activity against Sida spinosa in field soil at 62.5 g/ha measured after 3 days by preemergence herbicidal activity tests; assay type: functional
Sorghum halepense [6] = test: Herbicidal activity against Sorghum halepense (Johnson grass) in field soil at 62.5 g/ha measured after 3 days by preemergence herbicidal activity tests; assay type: functional
Echinochloa crus-galli [7] = test: Herbicidal activity against Echinochloa crus-galli (barnyard grass) in field soil at 62.5 g/ha measured after 3 days by preemergence herbicidal activity tests; assay type: functional
Eleusine indica [8] = test: Herbicidal activity against Eleusine indica in field soil at 125 g/ha measured after 3 days by preemergence herbicidal activity tests; assay type: functional
Gossypium hirsutum [9] = test: Phytotoxicity against Gossypium hirsutum (cotton) at 125 g/ha by selectivity assay; assay type: organism-based; details: in vivo
Sida spinosa [10] = test: Herbicidal activity against Sida spinosa in field soil at 125 g/ha measured after 3 days by preemergence herbicidal activity tests; assay type: functional
Ipomoea nil [11] = test: Herbicidal activity against Ipomoea nil (Japanese morning glory) in field soil at 125 g/ha measured after 3 days by pre-emergence herbicidal activity tests; assay type: functional
Amaranthus viridis [12] = test: Herbicidal activity against Amaranthus viridis in field soil at 62.5 g/ha measured after 3 days by pre-emergence herbicidal activity tests; assay type: functional
Sorghum halepense [13] = test: Herbicidal activity against Sorghum halepense (Johnson grass) in field soil at 125 g/ha measured after 3 days by preemergence herbicidal activity tests; assay type: functional
Abutilon theophrasti [14] = test: Herbicidal activity against Abutilon theophrasti (velvetleaf) in field soil at 62.5 g/ha measured after 3 days by preemergence herbicidal activity tests; assay type: functional
Ipomoea nil [15] = test: Herbicidal activity against Ipomoea nil (Japanese morning glory) in field soil at 62.5 g/ha measured after 3 days by pre-emergence herbicidal activity tests; assay type: functional
Gossypium hirsutum [16] = test: Phytotoxicity against Gossypium hirsutum (cotton) at 62.5 g/ha by selectivity assay; assay type: organism-based; details: in vivo
Amaranthus viridis [17] = test: Herbicidal activity against Amaranthus viridis in field soil at 125 g/ha measured after 3 days by pre-emergence herbicidal activity tests; assay type: functional
Portulaca oleracea [18] = test: Herbicidal activity against Portulaca oleracea in field soil at 125 g/ha measured after 3 days by preemergence herbicidal activity tests; assay type: functional
Portulaca oleracea [19] = test: Herbicidal activity against Portulaca oleracea in field soil at 62.5 g/ha measured after 3 days by preemergence herbicidal activity tests; assay type: functional
Eleusine indica [20] = test: Herbicidal activity against Eleusine indica in field soil at 62.5 g/ha measured after 3 days by preemergence herbicidal activity tests; assay type: functional

Structure (SMILES) | Activity (Abutilon theophrasti [1]) | Activity (Echinochloa frumentacea) | Activity (Ipomoea nil [2]) | also measured
CCOC(=O)/N=c1/sc(CC)cn1-c1cccc(C(F)(F)F)c1 | 70% | 70% | 70% | –
Cc1cn(-c2cccc(C(F)(F)F)c2)/c(=N/C(=O)C(F)F)s1 | 100% | 100% | 100% | Activity (Abutilon theophrasti [3]): 100%; Activity (Echinochloa crus-galli [4]): 100%; Activity (Sida spinosa [5]): 100%; Activity (Sorghum halepense [6]): 90%; Activity (Echinochloa crus-galli [7]): 90%; Activity (Eleusine indica [8]): 90%; Activity (Gossypium hirsutum [9]): 0%; Activity (Sida spinosa [10]): 100%; Activity (Ipomoea nil [11]): 100%; Activity (Amaranthus viridis [12]): 100%; Activity (Sorghum halepense [13]): 90%; Activity (Abutilon theophrasti [14]): 100%; Activity (Ipomoea nil [15]): 100%; Activity (Gossypium hirsutum [16]): 0%; Activity (Amaranthus viridis [17]): 100%; Activity (Portulaca oleracea [18]): 100%; Activity (Portulaca oleracea [19]): 100%; Activity (Eleusine indica [20]): 90%
Cc1cn(-c2cccc(C(F)(F)F)c2)/c(=N/C(=O)C(F)(F)F)s1 | 100% | 100% | 100% | Activity (Abutilon theophrasti [3]): 100%; Activity (Echinochloa crus-galli [4]): 100%; Activity (Sida spinosa [5]): 90%; Activity (Sorghum halepense [6]): 70%; Activity (Echinochloa crus-galli [7]): 80%; Activity (Eleusine indica [8]): 90%; Activity (Gossypium hirsutum [9]): 30%; Activity (Sida spinosa [10]): 100%; Activity (Ipomoea nil [11]): 100%; Activity (Amaranthus viridis [12]): 90%; Activity (Sorghum halepense [13]): 90%; Activity (Abutilon theophrasti [14]): 90%; Activity (Ipomoea nil [15]): 80%; Activity (Gossypium hirsutum [16]): 10%; Activity (Amaranthus viridis [17]): 100%; Activity (Portulaca oleracea [18]): 90%; Activity (Portulaca oleracea [19]): 90%; Activity (Eleusine indica [20]): 80%
Cc1cn(-c2cccc(C(F)(F)F)c2)/c(=N/C(=O)C(F)(F)C(F)(F)F)s1 | 80% | 80% | 70% | –
CCOC(=O)/N=c1/scc(C)n1-c1cccc(C(F)(F)F)c1 | 0% | 0% | 0% | –
CCOC(=O)/N=c1/scc(Cl)n1-c1cccc(C(F)(F)F)c1 | 0% | 0% | 0% | –
CCOC(=O)/N=c1/scc(N)n1-c1cccc(C(F)(F)F)c1 | 0% | 30% | 10% | –
CCOC(=O)/N=c1/sc(C)cn1-c1cccc(C(F)(F)F)c1 | 90% | 90% | 90% | –
CCCc1cn(-c2cccc(C(F)(F)F)c2)/c(=N\C(=O)OCC)s1 | 0% | 60% | 40% | –
CCOC(=O)/N=c1/sc(C(C)C)cn1-c1cccc(C(F)(F)F)c1 | 0% | 0% | 10% | –
CCOC(=O)/N=c1/sc(Cl)cn1-c1cccc(C(F)(F)F)c1 | 70% | 90% | 60% | –
CCOC(=O)/N=c1/sc(Br)cn1-c1cccc(C(F)(F)F)c1 | 100% | 90% | 60% | –
CCOC(=O)/N=c1/sc(I)cn1-c1cccc(C(F)(F)F)c1 | 60% | 80% | 90% | –
CCOC(=O)/N=c1/sc(SC)cn1-c1cccc(C(F)(F)F)c1 | 40% | 70% | 50% | –
CCOC(=O)/N=c1/sc(C#N)cn1-c1cccc(C(F)(F)F)c1 | 0% | 20% | 0% | –
CCOC(=O)/N=c1/sc2c(n1-c1cccc(C(F)(F)F)c1)CCC2 | 0% | 0% | 0% | –
CCOC(=O)/N=c1/sc2c(n1-c1cccc(C(F)(F)F)c1)CCCC2 | 0% | 0% | 0% | –
CCOC(=O)/N=c1/sc(C)c(Br)n1-c1cccc(C(F)(F)F)c1 | 0% | 20% | 40% | –
CCOC(=O)/N=c1/sc(Br)c(Br)n1-c1cccc(C(F)(F)F)c1 | 0% | 20% | 40% | –
Cc1cn(-c2cccc(C(F)(F)F)c2)c(=N)s1 | 0% | 40% | 0% | –
